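Compound exposure: 48 hours, 5 concentrations, 96-well plates. At the TGI there is no net growth.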 Where a SMILES comes first, the peptide text is derived from it. [ ]: non-standard residue; d: D form.
Columns and labels:
Test in all cases: NCI tumour cell line growth inhibition, 48 h
[1] = test system: P388/ADR leukemia
[2] = test system: SN12K1 renal
[3] = test system: SF-268 CNS
[4] = test system: OVCAR-5 ovarian
[5] = test system: HCT-116 colon
[6] = test system: MOLT-4 leukemia
[7] = test system: COLO 205 colon
[8] = test system: DMS 273 small cell lung
[9] = test system: NCI-H23 lung
[10] = test system: NCI-H522 lung
[11] = test system: EKVX NSCLC
[12] = test system: UACC-62 melanoma
[13] = test system: HOP-18 NSCLC
[14] = test system: IGROV1 ovarian
[15] = test system: U251 CNS
[16] = test system: UACC-257 melanoma
[17] = test system: A549 NSCLC
[18] = test system: A498 renal
[19] = test system: SNB-19 CNS
[20] = test system: SNB-75 CNS
[21] = test system: P388 leukemia
[22] = test system: SW-620 colon
[23] = test system: CCRF-CEM leukemia
[24] = test system: SK-MEL-28 melanoma
[25] = test system: M19-MEL melanoma
[26] = test system: RPMI-8226 leukemia
[27] = test system: LOX IMVI melanoma
[28] = test system: OVCAR-8 ovarian
[29] = test system: XF 498 CNS
[30] = test system: MCF7 breast
[31] = test system: HT29 colon
[32] = test system: SF-539 CNS
[33] = test system: HCC-2998 colon
[34] = test system: SK-OV-3 ovarian
[35] = test system: NCI-H460 lung
[36] = test system: K-562 leukemia
[37] = test system: MALME-3M melanoma
[38] = test system: SK-MEL-5 melanoma
[39] = test system: OVCAR-3 ovarian
[40] = test system: RXF 393 renal
[41] = test system: SNB-78 CNS
[42] = test system: OVCAR-4 ovarian
[43] = test system: NCI/ADR-RES ovarian
[44] = test system: SK-MEL-2 melanoma
[45] = test system: SF-295 CNS
[46] = test system: DLD-1 colon
[47] = test system: KM12 colon
[48] = test system: HL-60(TB) leukemia
[49] = test system: HOP-62 NSCLC
[50] = test system: SN12C renal
[51] = test system: HOP-92 NSCLC
[52] = test system: NCI-H226 lung
[53] = test system: KM20L2 colon
[54] = test system: HCT-15 colon
[55] = test system: UO-31 renal

Measured: TGI

CC(C)C[C@H](NC(=O)[C@H](CC(C)C)NC(=O)[C@@H](Cc1c[nH]c2ccccc12)NC(=O)[C@H](Cc1ccccc1)NC(=O)[C@@H](Cc1c[nH]c2ccccc12)NC(=O)[C@H](CCC(N)=O)NC(=O)[C@H](CCC(N)=O)NC(=O)[C@H]1CCCN1C(=O)[C@@H](N)CCCCN)C(N)=O (H-K[dP]QQ[dW]F[dW]LL-NH2)
> 100 µM: all assays above

From PubChem BioAssay (NCI)
